From ChEMBL document CHEMBL3132769, “Fragment growing to retain or alter the selectivity of anchored kinase hinge-binding fragments” (Medchemcomm, 2014)

Key:
[1] = target: Ribosomal protein S6 kinase alpha-5 (Homo sapiens) (UniProt O75582); experiment: Inhibition of human full length MSK1 expressed in baculovirus assessed as substrate phosphorylation using fluorescence-labelled peptides as substrate at 0.06 uM after 90 mins by microfluidic peptide phosphorylation assay
[2] = target: Protein kinase C delta type (Homo sapiens) (UniProt Q05655); experiment: Inhibition of human truncated PKC delta expressed in baculovirus assessed as substrate phosphorylation using fluorescence-labelled peptides as substrate at 2 uM after 90 mins by microfluidic peptide phosphorylation assay
Protein kinase C delta type (Homo sapiens), sequence (Q05655 whole entry, looked up, the tested form may be a part): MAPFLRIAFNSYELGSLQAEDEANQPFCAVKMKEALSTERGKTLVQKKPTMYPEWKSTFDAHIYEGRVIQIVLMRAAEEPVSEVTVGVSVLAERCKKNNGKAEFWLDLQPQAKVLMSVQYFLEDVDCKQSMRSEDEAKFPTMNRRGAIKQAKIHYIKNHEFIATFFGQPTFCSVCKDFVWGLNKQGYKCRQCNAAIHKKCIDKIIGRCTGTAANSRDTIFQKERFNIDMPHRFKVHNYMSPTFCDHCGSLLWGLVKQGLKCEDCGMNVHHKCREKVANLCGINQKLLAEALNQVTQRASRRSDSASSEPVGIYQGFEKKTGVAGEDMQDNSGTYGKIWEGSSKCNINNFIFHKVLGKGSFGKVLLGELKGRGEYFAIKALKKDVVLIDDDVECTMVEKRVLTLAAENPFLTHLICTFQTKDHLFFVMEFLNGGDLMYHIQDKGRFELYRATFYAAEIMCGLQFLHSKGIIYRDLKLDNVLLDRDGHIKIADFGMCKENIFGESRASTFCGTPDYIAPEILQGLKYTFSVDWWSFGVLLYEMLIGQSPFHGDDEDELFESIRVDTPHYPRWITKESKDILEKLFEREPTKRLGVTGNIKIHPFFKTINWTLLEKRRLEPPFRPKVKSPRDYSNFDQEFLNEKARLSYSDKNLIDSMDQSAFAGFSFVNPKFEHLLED

[3] = target: Tyrosine-protein kinase Fyn (Homo sapiens) (UniProt P06241); experiment: Inhibition of human full length FYN expressed in baculovirus assessed as substrate phosphorylation using fluorescence-labelled peptides as substrate at 2 uM after 90 mins by microfluidic peptide phosphorylation assay
Tyrosine-protein kinase Fyn (Homo sapiens), sequence (P06241 2-537 limits assumed): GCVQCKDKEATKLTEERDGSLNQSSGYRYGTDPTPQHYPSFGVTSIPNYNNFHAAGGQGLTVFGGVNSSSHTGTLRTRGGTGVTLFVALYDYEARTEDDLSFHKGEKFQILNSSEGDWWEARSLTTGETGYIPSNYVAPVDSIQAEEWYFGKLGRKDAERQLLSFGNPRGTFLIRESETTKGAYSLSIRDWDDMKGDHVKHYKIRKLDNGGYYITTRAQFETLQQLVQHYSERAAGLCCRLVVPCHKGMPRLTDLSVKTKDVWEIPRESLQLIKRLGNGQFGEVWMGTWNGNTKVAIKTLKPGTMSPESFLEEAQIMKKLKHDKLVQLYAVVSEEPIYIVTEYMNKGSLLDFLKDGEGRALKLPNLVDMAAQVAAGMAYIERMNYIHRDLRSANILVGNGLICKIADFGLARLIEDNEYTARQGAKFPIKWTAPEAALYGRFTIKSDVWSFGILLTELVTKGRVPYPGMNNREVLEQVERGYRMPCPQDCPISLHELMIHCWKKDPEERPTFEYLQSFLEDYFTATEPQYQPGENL

[4] = target: T1, MAP kinase-activated protein kinase 5 (Homo sapiens) (UniProt Q8IW41); experiment: Inhibition of human full length PRAK expressed in baculovirus assessed as substrate phosphorylation using fluorescence-labelled peptides as substrate at […] after 90 mins by microfluidic peptide phosphorylation assay
T1 sequence (whole entry): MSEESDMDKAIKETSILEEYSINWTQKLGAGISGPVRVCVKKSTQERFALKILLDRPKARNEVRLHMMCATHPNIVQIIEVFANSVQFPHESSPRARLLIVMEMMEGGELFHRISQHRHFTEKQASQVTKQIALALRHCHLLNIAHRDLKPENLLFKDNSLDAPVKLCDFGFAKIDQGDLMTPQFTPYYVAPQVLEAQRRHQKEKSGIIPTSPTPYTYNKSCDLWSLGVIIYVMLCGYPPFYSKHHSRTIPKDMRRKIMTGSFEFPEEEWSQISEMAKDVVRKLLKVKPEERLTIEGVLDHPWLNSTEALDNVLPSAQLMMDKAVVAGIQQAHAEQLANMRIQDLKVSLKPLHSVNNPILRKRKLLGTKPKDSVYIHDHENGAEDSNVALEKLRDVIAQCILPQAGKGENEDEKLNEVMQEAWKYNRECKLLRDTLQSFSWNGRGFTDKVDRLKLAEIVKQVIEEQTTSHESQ

[5] = target: Fibroblast growth factor receptor 2 (Homo sapiens) (UniProt P21802); experiment: Inhibition of human FGFR2 catalytic domain expressed in baculovirus assessed as substrate phosphorylation using fluorescence-labelled peptides as substrate at 9 uM after 90 mins by microfluidic peptide phosphorylation assay
Fibroblast growth factor receptor 2 (Homo sapiens), sequence (P21802 22-821 limits assumed): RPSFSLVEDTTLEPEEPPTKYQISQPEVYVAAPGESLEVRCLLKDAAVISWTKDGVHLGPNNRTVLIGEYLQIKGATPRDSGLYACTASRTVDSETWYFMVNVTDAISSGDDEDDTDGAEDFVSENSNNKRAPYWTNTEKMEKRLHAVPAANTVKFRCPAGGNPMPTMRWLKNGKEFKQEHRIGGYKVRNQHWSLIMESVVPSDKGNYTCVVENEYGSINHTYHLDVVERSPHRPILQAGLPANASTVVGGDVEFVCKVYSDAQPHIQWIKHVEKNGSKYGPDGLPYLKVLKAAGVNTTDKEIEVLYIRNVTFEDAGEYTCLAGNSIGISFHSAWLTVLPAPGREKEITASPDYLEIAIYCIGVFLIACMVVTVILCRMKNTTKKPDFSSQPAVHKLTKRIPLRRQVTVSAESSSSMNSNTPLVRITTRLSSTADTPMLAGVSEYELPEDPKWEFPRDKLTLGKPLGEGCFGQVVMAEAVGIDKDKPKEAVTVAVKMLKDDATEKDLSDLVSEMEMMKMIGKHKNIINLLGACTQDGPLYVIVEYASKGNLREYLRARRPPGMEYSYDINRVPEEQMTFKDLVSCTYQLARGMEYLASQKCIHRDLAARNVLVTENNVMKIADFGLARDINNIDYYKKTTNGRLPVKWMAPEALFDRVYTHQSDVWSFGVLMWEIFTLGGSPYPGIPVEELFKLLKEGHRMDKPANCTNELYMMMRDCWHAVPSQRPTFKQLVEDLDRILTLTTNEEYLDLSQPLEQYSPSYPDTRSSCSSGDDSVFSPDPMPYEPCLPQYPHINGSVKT

[6] = target: MAP kinase p38 (Homo sapiens) (UniProt O15264+Q15759+Q16539+P53778); experiment: Inhibition of human full length p38 beta2 expressed in Escherichia coli cell assessed as substrate phosphorylation using fluorescence-labelled peptides as substrate at 9 uM after 90 mins by microfluidic peptide phosphorylation assay
[7] = target: Calcium/calmodulin-dependent protein kinase type II subunit gamma (Homo sapiens) (UniProt Q13555); settings: 0.1 uM
Calcium/calmodulin-dependent protein kinase type II subunit gamma (Homo sapiens), sequence (Q13555 whole entry, the tested form may be a part): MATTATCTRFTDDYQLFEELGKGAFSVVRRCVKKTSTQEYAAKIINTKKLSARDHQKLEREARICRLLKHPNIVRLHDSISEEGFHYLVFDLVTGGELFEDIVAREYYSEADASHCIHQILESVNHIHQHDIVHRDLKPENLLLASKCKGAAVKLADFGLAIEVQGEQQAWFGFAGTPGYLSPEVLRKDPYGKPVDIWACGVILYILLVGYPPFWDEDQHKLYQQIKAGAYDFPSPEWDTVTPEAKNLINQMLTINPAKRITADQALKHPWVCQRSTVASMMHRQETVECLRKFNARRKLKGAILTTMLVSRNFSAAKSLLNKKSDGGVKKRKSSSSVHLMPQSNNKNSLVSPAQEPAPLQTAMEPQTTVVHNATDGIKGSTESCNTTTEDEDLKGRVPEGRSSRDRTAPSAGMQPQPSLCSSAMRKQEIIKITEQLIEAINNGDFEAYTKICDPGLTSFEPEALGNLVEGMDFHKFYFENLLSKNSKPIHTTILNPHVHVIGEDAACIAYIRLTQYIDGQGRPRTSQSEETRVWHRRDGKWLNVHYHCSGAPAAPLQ
Description: Inhibition of human CAMK2 gamma catalytic domain expressed in baculovirus assessed as substrate phosphorylation using fluorescence-labelled peptides as substrate at 0.1 uM after 90 mins by microfluidic peptide phosphorylation assay

[8] = target: Insulin-like growth factor 1 receptor (Homo sapiens) (UniProt P08069); experiment: Inhibition of human IGF1R catalytic domain expressed in baculovirus assessed as substrate phosphorylation using fluorescence-labelled peptides as substrate at 0.1 uM after 90 mins by microfluidic peptide phosphorylation assay
[9] = target: Tyrosine-protein kinase HCK (Homo sapiens) (UniProt P08631); experiment: Inhibition of human HCK catalytic domain expressed in baculovirus assessed as substrate phosphorylation using fluorescence-labelled peptides as substrate at 95 uM after 90 mins by microfluidic peptide phosphorylation assay
Tyrosine-protein kinase HCK (Homo sapiens), sequence (P08631 2-526 limits assumed): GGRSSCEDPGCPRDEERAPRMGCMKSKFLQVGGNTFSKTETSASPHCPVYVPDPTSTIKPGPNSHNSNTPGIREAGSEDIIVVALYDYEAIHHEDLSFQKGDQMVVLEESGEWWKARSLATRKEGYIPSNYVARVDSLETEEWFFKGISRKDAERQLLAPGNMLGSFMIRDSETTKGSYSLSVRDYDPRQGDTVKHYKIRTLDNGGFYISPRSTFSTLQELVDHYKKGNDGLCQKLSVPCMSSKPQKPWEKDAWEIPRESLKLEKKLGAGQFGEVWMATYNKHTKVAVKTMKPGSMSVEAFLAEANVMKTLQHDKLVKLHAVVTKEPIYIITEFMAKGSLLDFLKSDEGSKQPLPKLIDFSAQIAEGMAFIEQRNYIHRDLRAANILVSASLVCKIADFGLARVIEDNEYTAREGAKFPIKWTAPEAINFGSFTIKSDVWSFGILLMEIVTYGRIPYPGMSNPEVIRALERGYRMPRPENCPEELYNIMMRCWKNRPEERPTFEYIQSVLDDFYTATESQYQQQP

[10] = target: Tyrosine-protein kinase HCK (Homo sapiens) (UniProt P08631); experiment: Inhibition of human HCK catalytic domain expressed in baculovirus assessed as substrate phosphorylation using fluorescence-labelled peptides as substrate at 70 uM after 90 mins by microfluidic peptide phosphorylation assay
[11] = target: Fibroblast growth factor receptor 2 (Homo sapiens) (UniProt P21802); experiment: Inhibition of human FGFR2 catalytic domain expressed in baculovirus assessed as substrate phosphorylation using fluorescence-labelled peptides as substrate at 420 uM after 90 mins by microfluidic peptide phosphorylation assay
[12] = target: T2, Serine/threonine-protein kinase Sgk2 (Homo sapiens) (UniProt Q9HBY8); experiment: Inhibition of human full length SGK2 expressed in baculovirus assessed as substrate phosphorylation using fluorescence-labelled peptides as substrate at 420 uM after 90 mins by microfluidic peptide phosphorylation assay
T2 sequence (whole entry): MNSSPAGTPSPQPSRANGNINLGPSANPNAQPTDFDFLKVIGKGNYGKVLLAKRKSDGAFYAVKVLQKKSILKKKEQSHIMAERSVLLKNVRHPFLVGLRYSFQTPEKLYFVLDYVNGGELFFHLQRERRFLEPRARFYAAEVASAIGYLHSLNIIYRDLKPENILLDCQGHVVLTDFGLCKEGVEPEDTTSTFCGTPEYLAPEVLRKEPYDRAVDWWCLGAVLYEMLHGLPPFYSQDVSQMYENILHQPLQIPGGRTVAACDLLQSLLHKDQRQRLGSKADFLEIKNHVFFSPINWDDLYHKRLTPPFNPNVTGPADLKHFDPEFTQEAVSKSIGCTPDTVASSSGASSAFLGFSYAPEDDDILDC

[13] = target: T3, Interleukin-1 receptor-associated kinase 4 (Homo sapiens) (UniProt Q9NWZ3); experiment: Inhibition of human IRAK4 catalytic domain expressed in baculovirus assessed as substrate phosphorylation using fluorescence-labelled peptides as substrate at 420 uM after 90 mins by microfluidic peptide phosphorylation assay
T3 sequence (whole entry): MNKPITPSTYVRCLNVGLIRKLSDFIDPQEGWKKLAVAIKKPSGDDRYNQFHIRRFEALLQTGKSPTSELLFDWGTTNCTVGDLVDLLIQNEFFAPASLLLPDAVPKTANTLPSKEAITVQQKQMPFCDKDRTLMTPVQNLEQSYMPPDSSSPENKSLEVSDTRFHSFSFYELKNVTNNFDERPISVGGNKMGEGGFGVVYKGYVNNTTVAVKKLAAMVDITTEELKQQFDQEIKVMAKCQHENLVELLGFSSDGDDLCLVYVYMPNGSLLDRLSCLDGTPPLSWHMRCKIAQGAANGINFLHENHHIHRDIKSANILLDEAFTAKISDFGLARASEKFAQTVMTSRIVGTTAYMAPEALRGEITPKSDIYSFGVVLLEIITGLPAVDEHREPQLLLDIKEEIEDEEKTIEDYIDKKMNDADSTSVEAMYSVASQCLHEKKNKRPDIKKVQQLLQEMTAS

Ribosomal protein S6 kinase alpha-5 (Homo sapiens), sequence (O75582 whole entry, looked up, the tested form may be a part): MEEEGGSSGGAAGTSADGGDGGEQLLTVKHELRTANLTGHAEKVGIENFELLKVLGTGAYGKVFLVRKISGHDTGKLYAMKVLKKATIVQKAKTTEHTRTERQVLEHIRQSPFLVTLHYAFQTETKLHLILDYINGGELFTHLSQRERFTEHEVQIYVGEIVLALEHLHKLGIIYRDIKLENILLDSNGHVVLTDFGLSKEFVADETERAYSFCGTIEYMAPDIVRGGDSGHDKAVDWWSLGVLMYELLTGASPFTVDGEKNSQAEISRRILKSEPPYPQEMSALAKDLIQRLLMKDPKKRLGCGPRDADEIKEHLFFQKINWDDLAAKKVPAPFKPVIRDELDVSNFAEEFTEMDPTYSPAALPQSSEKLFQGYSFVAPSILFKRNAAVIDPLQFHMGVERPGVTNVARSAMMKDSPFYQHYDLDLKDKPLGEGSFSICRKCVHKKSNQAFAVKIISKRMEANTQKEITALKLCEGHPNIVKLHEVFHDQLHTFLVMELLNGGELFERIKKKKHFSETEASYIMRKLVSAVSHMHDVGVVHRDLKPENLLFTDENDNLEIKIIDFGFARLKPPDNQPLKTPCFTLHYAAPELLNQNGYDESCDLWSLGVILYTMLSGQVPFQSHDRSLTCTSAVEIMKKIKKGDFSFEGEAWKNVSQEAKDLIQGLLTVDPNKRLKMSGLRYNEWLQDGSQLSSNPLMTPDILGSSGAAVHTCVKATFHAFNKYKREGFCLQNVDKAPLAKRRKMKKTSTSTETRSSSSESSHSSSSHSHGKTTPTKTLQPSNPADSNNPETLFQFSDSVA

`NC1(Cc2ccc(Cl)cc2)CCN(c2ncnc3[nH]ccc23)CC1` gave an inhibition [1] of 5.5%.
Work on `NC1CCN(c2ncnc3[nH]ccc23)CC1` yielded an inhibition [2] of 33% and an inhibition [3] of 5%.
Molecule `COC(=O)c1cnc(Nc2cnc(C#N)cn2)cc1NCC1CCNCC1` has an inhibition [4] of 4%.
With `NCC1CN(c2ncnc3[nH]c4cnccc4c23)CCO1` (stereo not drawn) the inhibition [5] was 30% and the inhibition [6] was 0%.
`C[C@H](CN(C)C)Oc1nc(Nc2cc3cccc(Cl)c3cn2)cnc1C#N` was tested, and the inhibition [7] was 0% and the inhibition [8] was 9.5%.
`NCCc1ccc(-c2ncnc3[nH]cnc23)cc1` was tested, and the inhibition [9] was 48.5%.
Work on `CNCc1ccc(-c2ncnc3[nH]cnc23)cc1` yielded an inhibition [10] of 18.5%.
Molecule `c1nc(N2CCOCC2)c2nc[nH]c2n1` has an inhibition [11] of 93%, an inhibition [12] of 76.5% and an inhibition [13] of 74.5%.
